The source of these data is ChEMBL document CHEMBL4602647, “Protective effects of 10,11-dihydro-5H-dibenzo[b,f]azepine hydroxamates on vascular cognitive impairment” (Eur J Med Chem, 2020).

One experiment concerns the target Histone deacetylase 2 (Homo sapiens, UniProt Q92769). Briefly: Inhibition of recombinant human C-terminal GST-tagged HDAC2 (1 to 488 residues) expressed in baculovirus infected sf21 cells using RHK-K(Ac)-AMC as substrate after 60 mins by fluorimetry assay.
A further experiment has as its target T1, Histone deacetylase 8 (Homo sapiens, UniProt Q9BY41).
T1 sequence (Q9BY41 whole entry): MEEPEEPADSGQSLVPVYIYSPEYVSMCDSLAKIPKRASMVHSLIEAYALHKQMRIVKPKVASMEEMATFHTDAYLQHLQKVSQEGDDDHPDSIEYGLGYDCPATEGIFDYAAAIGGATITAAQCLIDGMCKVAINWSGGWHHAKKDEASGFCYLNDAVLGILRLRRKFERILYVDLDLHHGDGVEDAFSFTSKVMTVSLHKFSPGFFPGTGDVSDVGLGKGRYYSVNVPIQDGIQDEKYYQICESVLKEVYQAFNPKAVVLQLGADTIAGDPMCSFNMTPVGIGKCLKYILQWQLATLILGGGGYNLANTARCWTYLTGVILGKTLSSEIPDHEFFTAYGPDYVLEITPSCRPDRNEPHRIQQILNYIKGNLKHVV
Briefly: Inhibition of recombinant C-terminal His-tagged and N-terminal Streptavidin2-tagged human HDAC8 (1 to 377 residues) expressed in baculovirus infected insect cells using RHK-K(Ac)-AMC as substrate after 60 mins by fluorescence assay.

The target in experiment [1] is T2, Protein deacetylase HDAC6 (Homo sapiens, UniProt Q9UBN7).
T2 sequence (Q9UBN7 whole entry): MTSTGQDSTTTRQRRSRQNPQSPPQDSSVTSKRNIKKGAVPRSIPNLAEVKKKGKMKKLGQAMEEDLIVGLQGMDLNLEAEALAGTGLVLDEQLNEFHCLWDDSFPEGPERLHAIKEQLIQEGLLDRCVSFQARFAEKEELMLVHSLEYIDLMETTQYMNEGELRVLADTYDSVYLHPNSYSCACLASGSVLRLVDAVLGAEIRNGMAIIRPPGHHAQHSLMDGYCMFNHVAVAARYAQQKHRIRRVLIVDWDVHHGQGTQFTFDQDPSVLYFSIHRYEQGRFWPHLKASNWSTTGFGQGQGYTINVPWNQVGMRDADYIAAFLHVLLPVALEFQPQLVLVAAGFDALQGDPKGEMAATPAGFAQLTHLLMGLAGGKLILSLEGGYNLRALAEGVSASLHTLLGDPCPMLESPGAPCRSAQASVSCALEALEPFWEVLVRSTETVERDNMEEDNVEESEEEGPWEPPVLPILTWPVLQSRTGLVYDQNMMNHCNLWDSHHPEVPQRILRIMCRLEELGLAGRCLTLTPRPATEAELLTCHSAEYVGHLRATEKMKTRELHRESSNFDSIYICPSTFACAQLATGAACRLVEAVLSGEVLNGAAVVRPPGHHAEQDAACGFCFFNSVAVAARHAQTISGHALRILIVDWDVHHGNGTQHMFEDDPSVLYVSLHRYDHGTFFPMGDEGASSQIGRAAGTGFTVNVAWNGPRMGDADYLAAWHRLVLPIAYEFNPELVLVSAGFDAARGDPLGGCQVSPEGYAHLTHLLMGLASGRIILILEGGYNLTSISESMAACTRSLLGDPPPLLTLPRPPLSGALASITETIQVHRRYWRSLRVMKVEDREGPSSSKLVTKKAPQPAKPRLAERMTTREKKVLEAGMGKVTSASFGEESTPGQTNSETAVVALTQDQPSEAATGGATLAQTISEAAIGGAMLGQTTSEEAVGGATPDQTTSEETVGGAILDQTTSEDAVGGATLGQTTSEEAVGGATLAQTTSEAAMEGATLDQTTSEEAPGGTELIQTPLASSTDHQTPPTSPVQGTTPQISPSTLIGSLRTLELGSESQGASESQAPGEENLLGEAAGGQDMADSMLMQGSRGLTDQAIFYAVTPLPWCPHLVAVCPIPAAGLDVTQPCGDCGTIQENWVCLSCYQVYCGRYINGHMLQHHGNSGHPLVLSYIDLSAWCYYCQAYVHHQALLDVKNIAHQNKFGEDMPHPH
Briefly: Inhibition of recombinant human N-terminal GST-tagged HDAC6 (1 to 1215 residues) expressed in baculovirus infected insect cells using RHK-K(Ac)-AMC as substrate after 90 mins by fluorimetry analysis.

Another experiment has as its target Histone deacetylase 1 (Homo sapiens, UniProt Q13547). As to the kind of experiment: Inhibition of recombinant full length human C-terminal FLAG/His-tagged HDAC1 (1 to 482 residues) expressed in baculovirus infected Sf21 cells using RHK-K(Ac)-AMC as substrate measured after 60 mins by fluorimetric assay.
Experiment [2] relates to SH-SY5Y. As to the kind of experiment: Neuroprotective activity against OGD-induced hypoxic injury in human SH-SY5Y cells assessed as LDH release at 1 nM to 10 uM incubated under oxygen/glucose deprivation-induced hypoxic medium by LDH assay. It counts as functional, cell-based. In general terms: LDH in the medium is a marker of cell lysis.
Experiment [3] relates to Mus musculus. Briefly: Anti-vascular cognitive impairment activity against bilateral common carotid artery occlusion-induced vascular dementia C57BL/6J mouse model assessed as improvement in short-term non-spatial working memory by measuring increase in novel object recognition at 25 mg/kg, ip administered post surgery measured after 1 month by novel object recognition test. In kind it is functional, organism-based.

Experiment [4] deals with Mus musculus. Briefly: Anti-vascular cognitive impairment activity against bilateral common carotid artery occlusion-induced vascular dementia C57BL/6J mouse model assessed as improvement in short-term non-spatial working memory by measuring increase in novel object recognition at 25 mg/kg, ip administered post surgery measured after 3 months by novel object recognition test. In kind it is functional, organism-based.

The test system of experiment [5] is Mus musculus. Briefly: Anti-vascular cognitive impairment activity against bilateral common carotid artery occlusion-induced vascular dementia C57BL/6J mouse model assessed as reversal of hippocampal atrophy by measuring increase in ratio of size of hippocampus to lateral ventricle at 25 mg/kg, ip administered post surgery measured after 3 months by 7T-MRI analysis. It counts as functional, organism-based.

Experiment [6] deals with Mus musculus. Briefly: Anti-vascular cognitive impairment activity against bilateral common carotid artery occlusion-induced vascular dementia C57BL/6J mouse model assessed as ratio of cerebral blood flow in right parietal area at 25 mg/kg, ip administered post surgery measured after 3 months (reference value: 0.761 +/- 0.037). It counts as functional.
Experiment [7] concerns Mus musculus. Briefly: Anti-vascular cognitive impairment activity against bilateral common carotid artery occlusion-induced vascular dementia C57BL/6J mouse model assessed as ratio of cerebral blood flow in left parietal area at 25 mg/kg, ip administered post surgery measured after 3 months(reference value: 0.792 +/- 0.029). In kind it is functional.
Experiment [8] deals with Mus musculus. Briefly: Upregulation of acetylated H3K14 protein expression in hippocampus of bilateral common carotid artery occlusion-induced vascular dementia C57BL/6J mouse model at 25 mg/kg, ip measured after 3 months by Western blot analysis. In kind it is functional, organism-based. For orientation: A western blot detects proteins with antibodies after separation by electrophoresis.

The test system of experiment [9] is Mus musculus. Briefly: Anti-vascular cognitive impairment activity against bilateral common carotid artery occlusion-induced vascular dementia C57BL/6J mouse model assessed as reversal of hippocampal atrophy by measuring increase in hippocampal volume at 25 mg/kg, ip administered post surgery measured after 3 months by 7T-MRI analysis. In kind it is functional, organism-based.

The subject of experiment [10] is SH-SY5Y. Briefly: Neuroprotective activity against OGD-induced hypoxic injury in human SH-SY5Y cells assessed as LDH release at 5 uM incubated under oxygen/glucose deprivation-induced hypoxic medium by LDH assay (reference value: 27.47 +/- 3.23 %). In kind it is functional.
The subject of experiment [11] is SH-SY5Y. Briefly: Neuroprotective activity against OGD-induced hypoxic injury in human SH-SY5Y cells assessed as LDH release at 10 uM incubated under oxygen/glucose deprivation-induced hypoxic medium by LDH assay (reference value: 27.47 +/- 3.23 %). It counts as functional.
Experiment [12] has as its system SH-SY5Y. As to the kind of experiment: Neuroprotective activity against OGD-induced hypoxic injury in human SH-SY5Y cells assessed as LDH release at 1 uM incubated under oxygen/glucose deprivation-induced hypoxic medium by LDH assay (reference value: 27.47 +/- 3.23 %). It counts as functional.

Activity calls are given as the source filed them. The rule behind the calls is not given here. A value given as a limit tells only on which side of the number the result lay.

Histone deacetylase 1, sequence (Q13547 whole entry, the tested form may be a part): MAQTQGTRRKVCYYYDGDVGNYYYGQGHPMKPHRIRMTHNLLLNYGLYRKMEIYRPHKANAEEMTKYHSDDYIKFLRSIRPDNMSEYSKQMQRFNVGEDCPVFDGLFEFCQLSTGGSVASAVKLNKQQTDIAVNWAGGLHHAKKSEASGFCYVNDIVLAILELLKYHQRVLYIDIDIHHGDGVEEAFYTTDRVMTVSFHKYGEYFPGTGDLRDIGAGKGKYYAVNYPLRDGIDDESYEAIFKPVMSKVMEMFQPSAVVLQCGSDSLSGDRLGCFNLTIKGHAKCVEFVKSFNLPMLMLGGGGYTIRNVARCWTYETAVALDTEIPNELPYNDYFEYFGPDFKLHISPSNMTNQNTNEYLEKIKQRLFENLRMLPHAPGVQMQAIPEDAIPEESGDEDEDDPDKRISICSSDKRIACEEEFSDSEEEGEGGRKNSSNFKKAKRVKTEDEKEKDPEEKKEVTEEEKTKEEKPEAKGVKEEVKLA
Histone deacetylase 2, sequence (Q92769 whole entry, the tested form may be a part): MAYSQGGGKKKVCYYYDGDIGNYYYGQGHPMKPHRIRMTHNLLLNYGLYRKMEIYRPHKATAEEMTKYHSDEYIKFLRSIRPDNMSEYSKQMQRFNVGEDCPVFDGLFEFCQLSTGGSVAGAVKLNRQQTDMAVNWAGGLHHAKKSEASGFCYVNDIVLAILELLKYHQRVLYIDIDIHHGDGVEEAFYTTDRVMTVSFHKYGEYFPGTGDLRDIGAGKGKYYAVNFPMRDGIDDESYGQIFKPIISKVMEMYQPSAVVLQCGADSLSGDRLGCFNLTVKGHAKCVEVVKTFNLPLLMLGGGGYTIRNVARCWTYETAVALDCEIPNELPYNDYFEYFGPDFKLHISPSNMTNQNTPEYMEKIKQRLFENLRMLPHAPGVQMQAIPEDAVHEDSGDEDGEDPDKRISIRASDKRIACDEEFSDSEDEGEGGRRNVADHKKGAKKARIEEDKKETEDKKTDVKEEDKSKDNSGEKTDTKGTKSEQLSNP

Turning to `O=C(CCC(=O)NCCCN1c2ccccc2CCc2ccc(Cl)cc21)NO`, the IC50 entry is “Not Active” at Histone deacetylase 2 (sf21), more than 10000 nM at Histone deacetylase 8, more than 10000 nM in experiment [1] and “Not Active” on Histone deacetylase 1 (sf21). Further, the outcome in the experiment with SH-SY5Y [2] was inactive.

As to `O=C(CCCCCCC(=O)Nc1ccccc1)NO` [VORINOSTAT], in the experiment on Mus musculus [3], the result was Active. The outcome with Mus musculus [4], with Mus musculus [5], in the experiment with Mus musculus [8] and in the experiment with Mus musculus [9] was inactive. The values for the Ratio in the experiment with Mus musculus [6] and with Mus musculus [7] were 0.83 and 0.878, respectively.

Turning to `O=C(CCCCCC(=O)NCCCN1c2ccccc2CCc2ccc(Cl)cc21)NO`, the 50% inhibitory concentration (IC50) on Histone deacetylase 2 (read-out: IC50) was 3.96 µM; on Histone deacetylase 8, 345 nM; in experiment [1], 61.6 nM; on Histone deacetylase 1 (read-out: IC50), 2.14 µM. Moreover, the results for the Activity with SH-SY5Y [10] and in the experiment on SH-SY5Y [11] were 86.54% and 92.47%, respectively.

`O=C(/C=C/c1ccc(S(=O)(=O)NCCCN2c3ccccc3CCc3ccc(Cl)cc32)cc1)NO`: the 50% inhibitory concentration (IC50) entry on Histone deacetylase 2 (sf21) is “Not Active”; on Histone deacetylase 8 it was 874 nM; in experiment [1], 762 nM; on Histone deacetylase 1 (read-out: IC50), more than 10 µM.

`O=C(CCCCC(=O)NCCCN1c2ccccc2CCc2ccc(Cl)cc21)NO`: the IC50 turned out to be 9.62 µM at Histone deacetylase 2 (read-out: IC50), 3090 nM on Histone deacetylase 8, 2070 nM in experiment [1] and 6.8 µM on Histone deacetylase 1 (read-out: IC50). In the experiment on SH-SY5Y [2], the outcome was inactive.

For `O=C(/C=C/c1cccc(S(=O)(=O)NCCCN2c3ccccc3CCc3ccc(Cl)cc32)c1)NO`, the IC50 on Histone deacetylase 2 (read-out: IC50) came to 8.48 µM; at Histone deacetylase 8, 2160 nM; in experiment [1] it was 821 nM; at Histone deacetylase 1 (read-out: IC50), 6.05 µM.

On to `O=C(NO)c1ccc(CNCCCN2c3ccccc3CCc3ccc(Cl)cc32)cc1`, for which the IC50 result on Histone deacetylase 2 (sf21) is “Not Active”; on Histone deacetylase 8 it was 1510 nM; in experiment [1] it was 2610 nM; on Histone deacetylase 1 (sf21) it was “Not Active”. The result in the experiment with SH-SY5Y [2] was inactive.

`O=C(NO)c1ccc(C(=O)NCCCN2c3ccccc3CCc3ccc(Cl)cc32)cc1`: the IC50 at Histone deacetylase 2 (read-out: IC50) turned out to be 8.62 µM; at Histone deacetylase 8 it was 1780 nM; in experiment [1], 448 nM; on Histone deacetylase 1 (read-out: IC50), 7.28 µM. Besides, the Activity in the experiment on SH-SY5Y [11] is 30.74%.

For `O=C(CCCC(=O)NCCCN1c2ccccc2CCc2ccc(Cl)cc21)NO`, the IC50 at Histone deacetylase 2 (read-out: IC50) came out at 5.96 µM; on Histone deacetylase 8, 1850 nM; in [1], 1440 nM; on Histone deacetylase 1 (read-out: IC50) it was 5.1 µM. Further, the result in the experiment with SH-SY5Y [2] was inactive.

Turning to `O=C(CCCCCCCCC(=O)NCCCN1c2ccccc2CCc2ccc(Cl)cc21)NO`, the IC50 was 3.03 µM at Histone deacetylase 2 (read-out: IC50), 864 nM at Histone deacetylase 8, 142 nM in experiment [1] and 5.45 µM on Histone deacetylase 1 (read-out: IC50). For the same compound, the Activity is given as 84.35% with SH-SY5Y [10] and 65.87% in the experiment on SH-SY5Y [11].

Turning to `CN(C)CCCN1c2ccccc2CCc2ccc(Cl)cc21`, the result with SH-SY5Y [2] was inactive.

For `O=C(CCCCCCC(=O)NCCCN1c2ccccc2CCc2ccc(Cl)cc21)NO`, the concentration for half-maximal inhibition (IC50) entry at Histone deacetylase 2 (sf21) was “Not Active”; at Histone deacetylase 8, 2330 nM; in experiment [1], 658 nM; at Histone deacetylase 1 (sf21), “Not Active”. The Activity in the experiment with SH-SY5Y [10] was 74.3%; in the experiment with SH-SY5Y [12], 43.16%; in the experiment with SH-SY5Y [11], 97.21%.

For the compound `O=C(CCCCCCCC(=O)NCCCN1c2ccccc2CCc2ccc(Cl)cc21)NO`, the IC50 turned out to be 2.74 µM at Histone deacetylase 2 (read-out: IC50), 1070 nM on Histone deacetylase 8, 144 nM in experiment [1] and 3.4 µM on Histone deacetylase 1 (read-out: IC50). Further, the Activity turned out to be 100.96% in the experiment with SH-SY5Y [10] and 76.55% in the experiment with SH-SY5Y [11].

Usually IC50 stands for the concentration that gives 50% inhibition.
